In patent US11957652B2, “Compositions comprising citrulline and leucine and their use in the treatment of diabetes and metabolic syndrome” (SOCIÉTÉ DES PRODUITS NESTLÉ S.A., priority 2013, dated 2024):

Test system: rats fed a high fat diet
Experiment: Fasting glucose and insulin plasma levels in rats fed a high fat diet
Assay type: in vivo, rat
Conditions: rats on high fat diet, 1 g/kg daily of citrulline or leucine, or 1.0 g/kg leucine and 1.0 g/kg citrulline; for fasting plasma glucose levels (glycemia): compared to high fat diet alone (FIG. 1); for fasting insulin plasma levels (insulinemia): compared to high fat diet alone and to chow-fed healthy rats (FIG. 2)
Procedure: Compositions comprising citrulline, leucine, or […] were tested for their effect on fasting glucose levels and insulin plasma levels. Briefly, rats were split into six groups and fed either chow, a high fat diet, a high fat diet with 1 g/kg leucine daily, a high fat diet with 0.2 g/kg citrulline, a high fat diet with 1 g/kg citrulline daily or a high fat diet with a composition comprising 1.0 g/kg leucine and 1.0 g/kg citrulline.

| SMILES | fasting plasma glucose levels (glycemia) | fasting insulin plasma levels (insulinemia) |
| --- | --- | --- |
| NC(=O)NCCC[C@H](N)C(=O)O [citrulline] | decrease | decrease |
| CC(C)C[C@H](N)C(=O)O [leucine] | decrease | decrease |
